Test results as given in paper PMC10145249, “Synthesis and Evaluation of ^68Ga-Labeled (2S,4S)-4-Fluoropyrrolidine-2-Carbonitrile and (4R)-Thiazolidine-4-Carbonitrile Derivatives as Novel Fibroblast Activation Protein-Targeted PET Tracers for Cancer Imaging” (Molecules, 2023).
Where two headings read alike, the source gives them in different places.

What was measured:
FAP [1] = system: FAP; set-up: method as in PMID 20718420; settings: substituted 4-carboxymethylpyroglutamic acid scaffold; read-out: IC50 (FAP-inhibitory activity); cited from earlier work
FAP [2] = system: FAP; set-up: method as in PMID 24617858; settings: cited from earlier work; for IC50: (4-quinolinoyl)-glycyl-2-cyanopyrrolidine series, read-out: IC50 (FAP-inhibitory potency)
recombinant human FAP = biological target: T1, recombinant human FAP (Homo sapiens, UniProt Q12884); assay: In vitro fluorescence-based FAP enzymatic inhibition assay (Suc-Gly-Pro-AMC substrate); type: biochemical; settings: for IC50: recombinant human FAP, Suc-Gly-Pro-AMC, n = 3
T1 construct: purchased Biolegend
T1 sequence (Q12884 1-760): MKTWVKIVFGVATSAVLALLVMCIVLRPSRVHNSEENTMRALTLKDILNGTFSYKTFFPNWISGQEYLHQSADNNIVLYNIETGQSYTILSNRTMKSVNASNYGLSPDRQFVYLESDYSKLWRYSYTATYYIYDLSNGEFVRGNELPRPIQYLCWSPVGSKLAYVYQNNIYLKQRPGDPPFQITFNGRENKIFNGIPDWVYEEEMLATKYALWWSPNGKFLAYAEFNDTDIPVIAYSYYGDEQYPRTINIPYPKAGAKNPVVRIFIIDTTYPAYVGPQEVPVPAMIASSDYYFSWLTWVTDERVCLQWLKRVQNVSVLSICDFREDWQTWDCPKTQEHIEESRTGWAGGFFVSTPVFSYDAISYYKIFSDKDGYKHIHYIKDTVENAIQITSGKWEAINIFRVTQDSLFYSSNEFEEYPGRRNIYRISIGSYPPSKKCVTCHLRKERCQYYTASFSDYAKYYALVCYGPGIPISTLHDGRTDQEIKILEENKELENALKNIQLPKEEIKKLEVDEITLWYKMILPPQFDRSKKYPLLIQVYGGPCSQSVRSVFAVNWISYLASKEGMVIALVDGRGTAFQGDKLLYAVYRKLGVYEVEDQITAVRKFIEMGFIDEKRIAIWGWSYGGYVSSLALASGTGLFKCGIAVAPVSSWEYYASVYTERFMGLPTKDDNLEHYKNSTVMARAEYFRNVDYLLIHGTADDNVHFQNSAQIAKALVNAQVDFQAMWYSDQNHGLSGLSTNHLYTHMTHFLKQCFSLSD
Description: The half-maximal inhibitory concentration (IC50) values of the FAP-targeted ligands were measured using an in vitro enzymatic assay. Briefly, recombinant human FAP (Biolegend, San Diego, CA, USA; 0.2 µg/mL, 50 µL) was added into a Costar clear bottom 96-well plate. PBS and varied concentrations (25 pM to 1 µM) of ^natGa-complexed ligands were added to each well (in duplicate) containing the recombinant human FAP. After being incubated for 30 min at 37 °C, Suc-Gly-Pro-AMC (Bachem, Bubendorf, Switzerland; 20 mM, 50 µL) was added to each well. The velocities of AMC release were measured kinetically at λex = 380 nm, λem = 460 nm at 60 min at 37 °C using a FlexStation 3 Multi-Mode Microplate Reader.

[3] = LogD7.4 measurement (n-octanol / phosphate buffer pH 7.4); type: physicochemical; settings: n-octanol / 0.1 M phosphate buffer pH 7.4, n = 3
Description: Briefly, ^68Ga-labeled tracers (1.11–1.48 MBq) were aliquoted into vials containing 3 mL of n-octanol and 3 mL of 0.1 M phosphate buffer (pH 7.4) in triplicate. Each vial was then vortexed (1 min) and centrifuged (5000 RPM, 10 min). The n-octanol and aqueous layers were sampled (1 mL) and counted using an automated gamma counter and the LogD7.4 value was calculated using the following equation: LogD7.4=log10counts in n-octanol phase/counts in buffer phase

[4] = system: HEK293T:hFAP tumor xenografts; assay: PET/CT imaging in HEK293T:hFAP tumor-bearing mice; type: in vivo; settings: for Visualization of tumor xenografts in PET/CT images / Excretion pathway: 1 h pi; for Excretion pathway: PET/CT
Description: (§1) Imaging and biodistribution studies were performed using immunodeficient male NRG (NOD.Cg-Rag1tm1Mom Il2rgtm1Wjl/SzJ) mice. All experiments were conducted according to the guidelines established by the Canadian Council on Animal Care and approved by Animal Ethics Committee of the University of British Columbia. The mice were subcutaneously inoculated with 7.5 × 10^6 HEK293T:hFAP cells in the left dorsal flank. When the tumors grew to 6–8 mm in diameter, the mice were used for PET/CT imaging and biodistribution studies.
PET/CT imaging experiments were carried out using a Siemens Inveon micro PET/CT scanner (Knoxville, TN, USA). Tumor-bearing mice were injected with ~4 to 6 MBq (0.02–0.13 nmol) of ^68Ga-labeled tracer through a lateral caudal tail vein under 2.5% isoflurane in oxygen anesthesia, followed by recovery and free roaming in their cage during the uptake period. A 10 min localization CT scan was acquired using 3 overlapping positions to cover each entire mouse. A CT scan was used for attenuation and scatter correction, and anatomical localization. A list mode acquisition was then performed for 15 min at 1 h pi with each mouse under isoflurane sedation. The images were reconstructed using 3D OSEM/MAP iterative methods.
(§2) For blocking studies, HEK293T:hFAP tumor-bearing mice were co-injected with [^68Ga]Ga-SB03045 and excess nonradioactive Ga-FAPI-04 (0.5 mg/mouse) as a competitor. Imaging and biodistribution were performed at 1 h pi, similar to the process for the unblocked mice.

[5] = system: HEK293T:hFAP tumor-bearing mice; assay: Ex vivo biodistribution in HEK293T:hFAP tumor xenograft mouse model
Description: as §1
For biodistribution studies, the mice were injected with ~1–2 MBq (0.01–0.04 nmol) of the ^68Ga-labeled tracer, using the exact procedures described above. At 1 h post injection, the mice were euthanized by CO2 inhalation. Blood was withdrawn by cardiac puncture and organs/tissues of interest were collected, weighed, and counted using a Perkin Elmer (Waltham, MA, USA) Wizard2 2480 automatic gamma counter. The percent injected dose per gram of tissues (%ID/g) for different tracers was calculated.
as §2

[6] = set-up: method as in PMID 30072500; settings: patients, preliminary dosimetry study; cited from earlier work
[7] = 0.5 mg/mouse natGa-FAPI-04, 1 h pi
[8] = HEK293T:hFAP tumor-bearing mice, 1 h pi, blocked: co-injected with natGa-FAPI-04 (0.5 mg/mouse)
[9] = HEK293T:hFAP tumor-bearing mice, 1 h pi, unblocked

## N#C[C@@H]1C[C@H](F)CN1C(=O)CNC(=O)c1ccnc2ccc(OCCCN3CCN(C(=O)CN4CCN5CCN(CC(=O)O)CCN(CC4)CC(=O)[O][Ga+][O]C(=O)C5)CC3)cc12 [^natGa-SB03045]
Recombinant human FAP
  IC50: 1.59 ± 0.45 nM

## N#C[C@@H]1C[C@H](F)CN1C(=O)CNC(=O)c1ccnc2ccc(OCCCN3CCN(C(=O)CN4CCN5CCN(CC(=O)O)CCN(CC4)CC(=O)[O][68Ga+][O]C(=O)C5)CC3)cc12 [[^68Ga]Ga-SB03045]
[3]
  LogD7.4: −2.81 ± 0.05
[4]
  Visualization of tumor xenografts in PET/CT images: clearly visualized
  Excretion pathway: excreted mainly via the renal pathway
[4]; blocked, 0.5 mg/mouse natGa-FAPI-04, 1 h pi
  Tumor uptake in PET/CT on co-injection with natGa-FAPI-04: reduced the tumor uptake to almost background level
[5]; [7]
  Reduction in bone uptake by co-injection of excess natGa-FAPI-04: ~ 97%
  Reduction of average tumor uptake by co-injection of natGa-FAPI-04: ~ 96%
[5]; [8]
  Adrenal Glands uptake: 0.14 ± 0.08 %ID/g
  Blood uptake: 0.19 ± 0.12 %ID/g
  Bone uptake: 0.09 ± 0.05 %ID/g
  Brain uptake: 0.01 ± 0.01 %ID/g
  Fat uptake: 0.04 ± 0.02 %ID/g
  Heart uptake: 0.05 ± 0.03 %ID/g
  Kidneys uptake: 1.03 ± 0.43 %ID/g
  Liver uptake: 0.13 ± 0.04 %ID/g
  Lungs uptake: 0.15 ± 0.09 %ID/g
  Muscle uptake: 0.05 ± 0.03 %ID/g
  Pancreas uptake: 0.04 ± 0.03 %ID/g
  Small Intestines uptake: 0.12 ± 0.06 %ID/g
  Spleen uptake: 0.10 ± 0.05 %ID/g
  Stomach uptake: 0.07 ± 0.06 %ID/g
  Testes uptake: 0.06 ± 0.03 %ID/g
  Tumor uptake: 0.51 %ID/g
  Tumor/Blood uptake ratio: 3.06 ± 1.01
  Tumor/Bone uptake ratio: 6.67 ± 2.72
  Tumor/Kidney uptake ratio: 0.50 ± 0.01
  Tumor/Muscle uptake ratio: 12.4 ± 5.48
[5]; [9]
  Adrenal Glands uptake: 0.49 ± 0.47 %ID/g
  Blood uptake: 1.31 ± 0.43 %ID/g
  Bone uptake: 3.48 ± 1.02 %ID/g
  Brain uptake: 0.05 ± 0.01 %ID/g
  Fat uptake: 0.14 ± 0.08 %ID/g
  Heart uptake: 0.41 ± 0.15 %ID/g
  Kidneys uptake: 2.23 ± 0.41 %ID/g
  Liver uptake: 0.47 ± 0.10 %ID/g
  Lungs uptake: 0.69 ± 0.20 %ID/g
  Muscle uptake: 0.83 ± 0.42 %ID/g
  Pancreas uptake: 0.52 ± 0.22 %ID/g
  Small Intestines uptake: 0.40 ± 0.10 %ID/g
  Spleen uptake: 0.49 ± 0.19 %ID/g
  Stomach uptake: 0.31 ± 0.04 %ID/g
  Testes uptake: 0.26 ± 0.08 %ID/g
  Tumor uptake: 11.8 ± 2.35 %ID/g
  Tumor/Blood uptake ratio: 9.89 ± 3.80
  Tumor/Bone uptake ratio: 3.58 ± 1.07
  Tumor/Kidney uptake ratio: 5.41 ± 1.32
  Tumor/Muscle uptake ratio: 17.2 ± 8.68

## N#C[C@@H]1CC(F)(F)CN1C(=O)CNC(=O)c1ccnc2ccc(OCCCN3CCN(C(=O)CN4CCN5CCN(CC(=O)O)CCN(CC4)CC(=O)[O][68Ga+][O]C(=O)C5)CC3)cc12 [[^68Ga]Ga-FAPI-04, reference compound]
[3]
  LogD7.4: −1.92 ± 0.35
[6]
  Drop of tumor uptake from 1 to 3 h post-injection: 25%
[5]; [9]
  Adrenal Glands uptake: 1.31 ± 0.60 %ID/g
  Blood uptake: 1.20 ± 0.30 %ID/g
  Bone uptake: 3.79 ± 1.36 %ID/g
  Brain uptake: 0.05 ± 0.01 %ID/g
  Fat uptake: 0.14 ± 0.06 %ID/g
  Heart uptake: 0.37 ± 0.08 %ID/g
  Kidneys uptake: 1.88 ± 0.18 %ID/g
  Liver uptake: 0.40 ± 0.07 %ID/g
  Lungs uptake: 0.80 ± 0.16 %ID/g
  Muscle uptake: 0.76 ± 0.20 %ID/g
  Pancreas uptake: 0.44 ± 0.16 %ID/g
  Small Intestines uptake: 0.37 ± 0.07 %ID/g
  Spleen uptake: 0.60 ± 0.14 %ID/g
  Stomach uptake: 0.16 ± 0.19 %ID/g
  Testes uptake: 0.28 ± 0.04 %ID/g
  Tumor/Blood uptake ratio: 10.5 ± 3.25
  Tumor/Bone uptake ratio: 3.49 ± 1.41
  Tumor/Kidney uptake ratio: 6.41 ± 1.52
  Tumor/Muscle uptake ratio: 16.8 ± 5.73

## N#C[C@@H]1CSCN1C(=O)CNC(=O)c1ccnc2ccc(OCCCN3CCN(C(=O)CN4CCN5CCN(CC(=O)O)CCN(CC4)CC(=O)[O][Ga+][O]C(=O)C5)CC3)cc12 [^natGa-SB03058]
Recombinant human FAP
  FAP-binding potency, fold higher than the di-fluorinated analog (natGa-FAPI-04): > 5 fold
  IC50: 0.68 ± 0.09 nM

## N#CC1CC(F)CN1C(=O)CNC(=O)c1ccnc2ccccc12 [(4S)-fluoropyrrolidine]
FAP [2]
  IC50: 3.3 nM

## N#C[C@@H]1CSCN1C(=O)CNC(=O)c1ccnc2ccc(OCCCN3CCN(C(=O)CN4CCN5CCN(CC(=O)O)CCN(CC4)CC(=O)[O][68Ga+][O]C(=O)C5)CC3)cc12 [[^68Ga]Ga-SB03058]
[3]
  LogD7.4: −2.49 ± 0.28
[4]
  Visualization of tumor xenografts in PET/CT images: clearly visualized
  Excretion pathway: excreted mainly via the renal pathway
[5]; HEK293T:hFAP tumor-bearing mice, 1 h pi
  Fold lower tumor uptake than [68Ga]Ga-FAPI-04: ~ 1.5 fold
[5]; [9]
  Adrenal Glands uptake: 2.50 ± 1.58 %ID/g
  Blood uptake: 2.07 ± 0.21 %ID/g
  Bone uptake: 4.73 ± 0.52 %ID/g
  Brain uptake: 0.11 ± 0.08 %ID/g
  Fat uptake: 0.40 ± 0.23 %ID/g
  Heart uptake: 0.59 ± 0.09 %ID/g
  Kidneys uptake: 2.64 ± 0.28 %ID/g
  Liver uptake: 0.62 ± 0.19 %ID/g
  Lungs uptake: 1.25 ± 0.11 %ID/g
  Muscle uptake: 1.42 ± 0.31 %ID/g
  Pancreas uptake: 0.86 ± 0.16 %ID/g
  Small Intestines uptake: 0.61 ± 0.05 %ID/g
  Spleen uptake: 1.48 ± 1.01 %ID/g
  Stomach uptake: 0.26 ± 0.07 %ID/g
  Testes uptake: 0.48 ± 0.10 %ID/g
  Tumor uptake: 7.93 ± 1.33 %ID/g
  Tumor/Blood uptake ratio: 3.82 ± 0.25
  Tumor/Bone uptake ratio: 1.67 ± 0.13
  Tumor/Kidney uptake ratio: 3.01 ± 0.32
  Tumor/Muscle uptake ratio: 5.64 ± 0.62
